Measurements reported in PubChem BioAssay (NCI).
Values joined by “and” are separate entries in the source; they are usually repeats but may differ in a detail not shown here. Identical values can stand only once.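 1) Cells in 96-well plates. 2) Compound, 48 h, 5 concentrations. 3) Linear interpolation between surrounding doses. 4) Unreached endpoint = highest concentration. Abbreviation: GI50, concentration required for 50% inhibition of growth. The concentration for full growth arrest is given as TGI.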

Tests used:
Assay in all cases: DTP human tumour cell line panel, 48 h
[1] = test system: ACHN renal
[2] = test system: SK-MEL-5 melanoma
[3] = test system: SK-OV-3 ovarian
[4] = test system: M14 melanoma
[5] = test system: T-47D breast
[6] = test system: A498 renal
[7] = test system: SNB-19 CNS
[8] = test system: OVCAR-4 ovarian
[9] = test system: UO-31 renal
[10] = test system: SR leukemia

`C=CCCCN(C(=O)c1ccccc1)c1ccc(C(=O)OC)o1` showed a TGI [1] of over 100 µM, a TGI [2] of over 100 µM and a TGI [3] of over 100 µM. For the same molecule, the TGI [4] was over 100 µM, the TGI [5] was over 100 µM and the TGI [6] was over 100 µM. It also gave a TGI [7] of over 100 µM, a TGI [8] of over 100 µM and a TGI [9] of over 100 µM.
`Cc1ccc(N=Nc2c(O)ccc3ccccc23)c(C)c1` showed a TGI [2] of over 100 µM, a TGI [3] of over 100 µM and a TGI [4] of over 100 µM. For the same molecule, the TGI [5] was over 100 µM, the TGI [6] was over 100 µM and the TGI [7] was over 100 µM. It also gave a TGI [8] of over 100 µM and a TGI [9] of over 100 µM.
Molecule `CN(C)Cc1cc(/C=C/C(=O)c2ccc(Br)cc2)cc(CN(C)C)c1O` has a TGI [1] of 24.7 µM, a TGI [2] of 40 µM and a TGI [3] of 55.1 µM. It also gave a TGI [4] of over 100 µM, a TGI [5] of 35.4 µM and a TGI [6] of 27.7 µM. The TGI [7] was 48.2 µM and the TGI [9] was 23.2 µM.
`CC12CC(c3ccccc3O1)C(C(=O)Nc1nccs1)C(=O)N2` (stereo not drawn) gave a TGI [1] of over 100 µM, a TGI [2] of over 100 µM and a TGI [3] of over 100 µM. It also gave a TGI [4] of over 100 µM, a TGI [6] of over 100 µM and a TGI [7] of over 100 µM. The TGI [8] was over 100 µM and the TGI [9] was over 100 µM.
`CCC1OC2(C)CC(C#N)(C#N)C1(C#N)C(=N)O2` (stereo not drawn) was tested, and the TGI [1] was over 100 µM, the TGI [2] was over 100 µM and the TGI [3] was over 100 µM. It also gave a TGI [4] of over 100 µM, a TGI [5] of over 100 µM and a TGI [6] of over 100 µM. It also gave a TGI [7] of over 100 µM and a TGI [9] of over 100 µM.
With `Cc1c2cc[n+](C)cc2c(C)c2c1[nH]c1ccc(OCC(F)(F)F)cc12` the GI50 [1] was 12 µM and > 100 µM, the TGI [1] was over 100 µM and the TGI [2] was 11.2 µM and 7.07 µM. The TGI [3] was over 100 µM, the GI50 [4] was 11.6 µM and > 94.3 µM and the TGI [4] was over 100 µM. The TGI [10] was 23 µM and > 52.1 µM, the GI50 [6] was 47 µM and > 100 µM and the TGI [6] was over 100 µM. For the same molecule, the TGI [7] was 3.02 µM, the TGI [8] was over 100 µM and the GI50 [9] was 36.6 µM and > 100 µM. For the same molecule, the TGI [9] was over 100 µM.
Molecule `CCCCn1c(-c2ccccc2)cs/c1=N\NC(=O)Cn1c(C)nc2ccccc21` has a TGI [1] of over 100 µM, a TGI [2] of over 100 µM and a TGI [3] of over 100 µM. It also gave a TGI [4] of over 100 µM, a TGI [10] of 50.9 µM and a TGI [6] of over 100 µM. The TGI [7] was over 100 µM, the TGI [8] was over 100 µM and the TGI [9] was over 100 µM.
With `C[C@H](NC(=O)C(C)(Cc1ccc(O)cn1)NC(=O)c1ccccc1)c1ccccc1` (stereo partly drawn) the TGI [1] was over 100 µM, the TGI [2] was over 100 µM and the TGI [4] was over 100 µM. For the same molecule, the TGI [5] was over 100 µM, the TGI [6] was over 100 µM and the TGI [7] was over 100 µM. The TGI [8] was over 100 µM and the TGI [9] was over 100 µM.
`COc1ccc(-c2c(/C=N/OCC(=O)O)c3sc4ccccc4n3c2/C=N/OCC(=O)O)cc1` was tested, and the TGI [1] was over 50 µM, the TGI [2] was over 50 µM and the TGI [3] was over 50 µM. For the same molecule, the TGI [4] was over 50 µM, the TGI [5] was over 50 µM and the TGI [7] was over 50 µM. For the same molecule, the TGI [8] was over 50 µM and the TGI [9] was over 50 µM.
`CSCSCC(CO)NC(=O)/C=C\c1c(C)[nH]c(=O)[nH]c1=O` (stereo not drawn) showed a TGI [2] of 105 µM, a TGI [3] of 74 µM and a TGI [6] of 229 µM. The TGI [7] was 197 µM, the TGI [8] was 13.4 µM and the TGI [9] was 126 µM.
Molecule `COc1ccc(-c2nc(-c3cnccn3)n(C/C=C/c3ccccc3)n2)cc1` has a TGI [2] of over 100 µM, a TGI [3] of over 100 µM and a TGI [4] of over 100 µM. For the same molecule, the TGI [10] was over 100 µM, the TGI [5] was over 100 µM and the TGI [7] was over 100 µM. It also gave a TGI [8] of 98.6 µM and a TGI [9] of over 100 µM.
In the case of `N/C(=N\N=C/c1c(O)cc(O)cc1O)NO`, the TGI [2] is reported as over 100 µM, the TGI [3] is reported as over 100 µM and the TGI [6] is reported as over 100 µM. For the same molecule, the TGI [7] was over 100 µM, the TGI [8] was over 100 µM and the TGI [9] was over 100 µM.
Work on `c1ccc(C2N=C(c3ccccn3)C(c3ccccn3)=NC2c2ccccc2)cc1` (stereo not drawn) yielded a TGI [1] of over 100 µM, a TGI [2] of over 100 µM and a TGI [3] of over 100 µM. For the same molecule, the TGI [4] was over 100 µM, the TGI [6] was over 100 µM and the TGI [7] was over 100 µM. It also gave a TGI [8] of over 100 µM and a TGI [9] of over 100 µM.
For `CC(C)=CC(=O)OC1C2C(C)=CC(=O)C(O)C2(C)C2C3(O)OCC24C(CC(=O)OC14)C(C)C3O` (stereo not drawn), the TGI [1] was 0.443 µM, the GI50 [2] was 0.02 µM and the TGI [2] was 0.01 µM and 0.0209 µM. For the same molecule, the GI50 [3] was 0.549 µM, the TGI [3] was 0.709 µM and 3.74 µM and the TGI [4] was 0.00826 µM. The TGI [5] was 0.0108 µM, the GI50 [6] was 0.142 µM and the TGI [6] was 0.288 µM and 0.511 µM. For the same molecule, the GI50 [7] was 0.0273 µM, the TGI [7] was 0.0303 µM and 0.0462 µM and the GI50 [8] was 0.02 µM. For the same molecule, the GI50 [9] was 0.829 µM and the TGI [9] was 0.545 µM and 4.78 µM and 1.03 µM.
With `Oc1c(NCn2nc(CCCCCCCCc3nn(CNc4ccc5ccccc5c4O)c(=S)o3)oc2=S)ccc2ccccc12` the TGI [1] was over 100 µM, the TGI [2] was over 100 µM and the TGI [3] was over 100 µM. It also gave a TGI [4] of over 100 µM, a TGI [6] of over 100 µM and a TGI [7] of over 100 µM. It also gave a TGI [8] of over 100 µM and a TGI [9] of over 100 µM.
`CC1(C)CC(=O)C2=C(C1)NC(=S)C(C#N)C2c1ccccc1` (stereo not drawn) was tested, and the TGI [1] was over 100 µM, the TGI [2] was over 100 µM and the TGI [3] was over 100 µM. For the same molecule, the TGI [4] was over 100 µM, the TGI [7] was over 100 µM and the TGI [8] was over 100 µM. The TGI [9] was over 100 µM.
With `COc1c(NC(C)=O)c2ccccc2c2ccccc12` the TGI [1] was over 100 µM, the TGI [2] was over 100 µM and the TGI [4] was over 100 µM. The TGI [10] was over 100 µM, the TGI [5] was over 100 µM and the TGI [6] was over 100 µM. It also gave a TGI [7] of over 100 µM, a TGI [8] of over 100 µM and a TGI [9] of over 100 µM.
In the case of `O=c1[nH]c(=S)[nH]c2c1CCCN2`, the TGI [1] is reported as over 100 µM, the TGI [2] is reported as over 100 µM and the TGI [3] is reported as over 100 µM. It also gave a TGI [4] of over 100 µM, a TGI [10] of over 100 µM and a TGI [7] of over 100 µM. For the same molecule, the TGI [9] was over 100 µM.
For `CSCCC(NC(=O)C(Cc1c[nH]c2ccccc12)NC(=O)CCNC(=O)OC(C)(C)C)C(=O)NC(CC(=O)O)C(=O)NC(Cc1ccccc1)C(N)=O` (stereo not drawn), the TGI [2] was over 50 µM, the TGI [3] was over 50 µM and the TGI [4] was over 50 µM. It also gave a TGI [5] of over 50 µM and a TGI [6] of over 50 µM.
`COc1cc(/C=C2\N=C(c3ccccc3)N(c3cc4cc(Sc5ccccc5)ccc4[nH]3)C2=O)ccc1O` gave a TGI [1] of over 50 µM, a TGI [2] of over 50 µM and a TGI [4] of over 50 µM. The TGI [10] was 20.4 µM, the TGI [5] was over 50 µM and the TGI [7] was over 50 µM. For the same molecule, the TGI [8] was over 50 µM and the TGI [9] was over 50 µM.
`Cc1cc2ccccc2n2c1nc1ccc(O)cc12` was tested, and the TGI [1] was over 10 µM, the TGI [2] was over 10 µM and the TGI [3] was over 10 µM. For the same molecule, the TGI [4] was over 10 µM, the TGI [10] was over 10 µM and the TGI [5] was over 10 µM. For the same molecule, the TGI [7] was over 10 µM and the TGI [8] was over 10 µM.
For `C[C@@H]([C@H]1CC[C@@]2(C)[C@@H]3CC[C@@H]4C(=CC3=CC[C@]12C)CC[C@H](N(C)C)C4(C)C)N(C)C`, the TGI [1] was over 100 µM, the TGI [2] was over 100 µM and the TGI [3] was over 100 µM. It also gave a TGI [4] of over 100 µM, a TGI [10] of over 100 µM and a TGI [5] of over 100 µM. It also gave a TGI [7] of over 100 µM and a TGI [8] of over 100 µM.
`CNCC(SC)c1ccc(O)c(O)c1` (stereo not drawn) was tested, and the TGI [1] was 33.4 µM, the TGI [2] was over 100 µM and the TGI [3] was over 100 µM. It also gave a TGI [4] of over 100 µM, a TGI [5] of 67 µM and a TGI [6] of over 100 µM. For the same molecule, the TGI [7] was over 100 µM, the TGI [8] was 32.5 µM and the TGI [9] was over 100 µM.
`CC1(C)Cc2ccccc2C(C)(Cl)C(=O)N1` (stereo not drawn) showed a TGI [1] of over 10 µM, a TGI [4] of over 10 µM and a TGI [10] of over 10 µM. The TGI [5] was over 10 µM, the TGI [6] was over 10 µM and the TGI [7] was over 10 µM. It also gave a TGI [8] of over 10 µM and a TGI [9] of over 10 µM.
